These results are taken from ChEMBL document CHEMBL3352322, “Synthesis and biological evaluation of 3-phenethylazetidine derivatives as triple reuptake inhibitors” (Bioorg Med Chem Lett, 2014).

The target in data set [1] is T1, Sodium-dependent serotonin transporter (Homo sapiens, UniProt P31645). The conditions noted are these: HEK293, at 0.1 µM.
Target sequence in this assay (P31645 whole entry, looked up): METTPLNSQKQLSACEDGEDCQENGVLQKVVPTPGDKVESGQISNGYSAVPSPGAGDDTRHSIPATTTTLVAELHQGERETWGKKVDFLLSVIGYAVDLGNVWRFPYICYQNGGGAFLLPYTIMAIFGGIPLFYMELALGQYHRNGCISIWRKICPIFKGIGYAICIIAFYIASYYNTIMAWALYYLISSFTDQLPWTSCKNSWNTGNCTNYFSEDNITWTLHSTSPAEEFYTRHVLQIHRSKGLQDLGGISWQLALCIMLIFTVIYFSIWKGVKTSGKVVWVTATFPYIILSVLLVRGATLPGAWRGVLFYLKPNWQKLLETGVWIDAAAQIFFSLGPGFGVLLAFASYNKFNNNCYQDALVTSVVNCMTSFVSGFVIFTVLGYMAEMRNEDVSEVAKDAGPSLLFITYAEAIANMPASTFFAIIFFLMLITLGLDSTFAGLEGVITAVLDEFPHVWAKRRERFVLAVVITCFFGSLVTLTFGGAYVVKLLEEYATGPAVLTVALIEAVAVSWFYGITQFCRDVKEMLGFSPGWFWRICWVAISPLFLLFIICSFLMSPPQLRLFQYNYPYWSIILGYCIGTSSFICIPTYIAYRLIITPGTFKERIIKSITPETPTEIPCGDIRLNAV
The target in data set [2] is T1, Sodium-dependent serotonin transporter. To be noted: HEK293, at 1 µM.
Target sequence in this assay (P31645 whole entry, looked up): as above
For data set [3] the target is unchanged. The conditions noted are these: HEK293, at 10 µM.
Target sequence in this assay (P31645 whole entry, looked up): as above
The nature of data set [4]: Stability in human liver microsomes assessed as compound remaining at 1 uM after 30 mins by LC/MS analysis. The format is ADME. The conditions noted are these: read-out: Stability.
For data set [5], the target named is T1, Sodium-dependent serotonin transporter. The format is cell-based, HEK293.
Target sequence in this assay (P31645 whole entry): as the sequence (P31645 whole entry, looked up) above
The target in data set [6] is T2, Sodium-dependent noradrenaline transporter (Homo sapiens, UniProt P23975).
Data set [7] addresses Sodium-dependent dopamine transporter (Homo sapiens, UniProt Q01959).
The target of the next data set is T3, CYP1A2 (Homo sapiens, UniProt P05177).
T3 sequence (P05177 whole entry): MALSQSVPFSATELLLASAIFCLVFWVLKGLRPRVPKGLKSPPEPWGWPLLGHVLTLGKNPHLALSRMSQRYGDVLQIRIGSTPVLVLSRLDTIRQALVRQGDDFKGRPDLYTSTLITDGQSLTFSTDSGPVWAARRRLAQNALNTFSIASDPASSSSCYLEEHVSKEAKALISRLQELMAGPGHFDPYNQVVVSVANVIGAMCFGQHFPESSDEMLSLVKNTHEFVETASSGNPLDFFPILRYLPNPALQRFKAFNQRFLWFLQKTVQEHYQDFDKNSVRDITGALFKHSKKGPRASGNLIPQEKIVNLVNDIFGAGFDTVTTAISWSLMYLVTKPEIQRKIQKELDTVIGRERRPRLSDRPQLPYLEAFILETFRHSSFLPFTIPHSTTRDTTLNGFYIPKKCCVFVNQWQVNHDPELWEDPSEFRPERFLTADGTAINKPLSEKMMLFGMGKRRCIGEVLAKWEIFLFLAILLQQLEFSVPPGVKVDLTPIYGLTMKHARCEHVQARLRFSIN
The data set is described as follows: in vitro. The conditions noted are these: recombinant CYP1A2.

A further data set has as its target CYP2D6 (Homo sapiens, UniProt P10635). Briefly: in vitro. To be noted: recombinant CYP2D6.
A further data set concerns the target CYP2C9 (Homo sapiens, UniProt P11712). Briefly: in vitro. The conditions noted are these: recombinant CYP2C9.
Another data set addresses CYP3A4 (Homo sapiens, UniProt P08684). Briefly: in vitro. To be noted: recombinant CYP3A4.
In another data set the target is CYP2C19 (Homo sapiens, UniProt P33261). The data set is described as follows: in vitro. To be noted: recombinant CYP2C19.
The target in data set [8] is T2, Sodium-dependent noradrenaline transporter. Briefly: Ratio of duloxetine IC50 to compound IC50 for norepinephrine reuptake at human NET expressed in HEK293 cells at 0.1 uM after 15 mins by fluorescence neurotransmitter transporter assay. The format is cell-based.
For data set [9] the target is unchanged. The data set is described as follows: Ratio of venlafaxine IC50 to compound IC50 for norepinephrine reuptake at human NET expressed in HEK293 cells at 0.1 uM after 15 mins by fluorescence neurotransmitter transporter assay. It counts as cell-based.
Data set [10] has as its target T1, Sodium-dependent serotonin transporter. The data set is described as follows: Ratio of duloxetine IC50 to compound IC50 for serotonin reuptake at human SERT expressed in HEK293 cells at 0.1 uM after 15 mins by fluorescence neurotransmitter transporter assay. It counts as cell-based.
Target sequence in this assay (P31645 whole entry, looked up): as the sequence (P31645 whole entry, looked up) above
For data set [11] the target is unchanged. The data set is described as follows: Ratio of venlafaxine IC50 to compound IC50 for serotonin reuptake at human SERT expressed in HEK293 cells at 0.1 uM after 15 mins by fluorescence neurotransmitter transporter assay. It counts as cell-based.
Target sequence in this assay (P31645 whole entry, looked up): as the sequence (P31645 whole entry, looked up) above

pIC50: −log10 of the molar value.

Sequence of Sodium-dependent dopamine transporter (Q01959 whole entry): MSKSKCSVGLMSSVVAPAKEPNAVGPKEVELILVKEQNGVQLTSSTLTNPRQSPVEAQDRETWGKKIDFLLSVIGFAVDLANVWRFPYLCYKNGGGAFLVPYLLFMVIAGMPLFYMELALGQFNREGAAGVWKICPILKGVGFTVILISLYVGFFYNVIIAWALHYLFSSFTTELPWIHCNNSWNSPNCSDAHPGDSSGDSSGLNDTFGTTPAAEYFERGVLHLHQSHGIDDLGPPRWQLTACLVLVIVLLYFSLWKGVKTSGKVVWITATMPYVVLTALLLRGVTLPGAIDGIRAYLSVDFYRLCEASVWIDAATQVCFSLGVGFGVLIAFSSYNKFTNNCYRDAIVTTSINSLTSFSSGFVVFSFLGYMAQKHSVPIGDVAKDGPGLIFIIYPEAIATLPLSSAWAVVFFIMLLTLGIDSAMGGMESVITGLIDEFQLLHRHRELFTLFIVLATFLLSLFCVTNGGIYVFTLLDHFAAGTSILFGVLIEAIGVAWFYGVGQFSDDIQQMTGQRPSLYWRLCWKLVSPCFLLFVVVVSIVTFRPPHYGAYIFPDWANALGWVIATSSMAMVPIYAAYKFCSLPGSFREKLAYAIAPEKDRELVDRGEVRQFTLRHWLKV
T2 sequence (P23975 whole entry): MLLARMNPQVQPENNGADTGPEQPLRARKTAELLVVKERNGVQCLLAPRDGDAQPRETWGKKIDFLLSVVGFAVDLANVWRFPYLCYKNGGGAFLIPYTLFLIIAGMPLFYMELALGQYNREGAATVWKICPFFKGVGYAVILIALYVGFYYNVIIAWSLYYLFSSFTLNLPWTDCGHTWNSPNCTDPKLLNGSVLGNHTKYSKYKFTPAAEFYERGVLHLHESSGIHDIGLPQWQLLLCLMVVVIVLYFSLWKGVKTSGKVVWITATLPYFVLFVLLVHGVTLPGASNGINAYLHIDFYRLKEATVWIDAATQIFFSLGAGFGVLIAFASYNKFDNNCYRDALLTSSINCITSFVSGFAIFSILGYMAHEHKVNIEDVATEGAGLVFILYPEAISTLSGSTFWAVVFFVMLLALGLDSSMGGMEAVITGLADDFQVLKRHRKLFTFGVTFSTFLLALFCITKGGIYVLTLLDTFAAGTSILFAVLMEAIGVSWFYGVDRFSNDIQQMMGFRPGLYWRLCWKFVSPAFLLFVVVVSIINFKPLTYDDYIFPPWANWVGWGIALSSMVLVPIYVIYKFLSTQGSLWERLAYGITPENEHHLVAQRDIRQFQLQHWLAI
Sequence of CYP2C9 (P11712 whole entry): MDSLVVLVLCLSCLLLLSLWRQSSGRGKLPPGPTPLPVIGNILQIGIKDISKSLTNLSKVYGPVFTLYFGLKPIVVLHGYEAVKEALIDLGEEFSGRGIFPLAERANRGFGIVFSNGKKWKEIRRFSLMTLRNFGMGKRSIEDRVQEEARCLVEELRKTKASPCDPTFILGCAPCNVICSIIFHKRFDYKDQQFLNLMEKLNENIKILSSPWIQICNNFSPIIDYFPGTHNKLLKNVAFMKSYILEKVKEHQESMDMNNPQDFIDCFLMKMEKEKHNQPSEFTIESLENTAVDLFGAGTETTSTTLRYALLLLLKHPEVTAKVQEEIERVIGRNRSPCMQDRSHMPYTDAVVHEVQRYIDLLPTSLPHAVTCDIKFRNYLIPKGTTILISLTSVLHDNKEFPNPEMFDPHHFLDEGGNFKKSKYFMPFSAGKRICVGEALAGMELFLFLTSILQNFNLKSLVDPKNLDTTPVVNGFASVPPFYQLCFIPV
Sequence of CYP2C19 (P33261 whole entry): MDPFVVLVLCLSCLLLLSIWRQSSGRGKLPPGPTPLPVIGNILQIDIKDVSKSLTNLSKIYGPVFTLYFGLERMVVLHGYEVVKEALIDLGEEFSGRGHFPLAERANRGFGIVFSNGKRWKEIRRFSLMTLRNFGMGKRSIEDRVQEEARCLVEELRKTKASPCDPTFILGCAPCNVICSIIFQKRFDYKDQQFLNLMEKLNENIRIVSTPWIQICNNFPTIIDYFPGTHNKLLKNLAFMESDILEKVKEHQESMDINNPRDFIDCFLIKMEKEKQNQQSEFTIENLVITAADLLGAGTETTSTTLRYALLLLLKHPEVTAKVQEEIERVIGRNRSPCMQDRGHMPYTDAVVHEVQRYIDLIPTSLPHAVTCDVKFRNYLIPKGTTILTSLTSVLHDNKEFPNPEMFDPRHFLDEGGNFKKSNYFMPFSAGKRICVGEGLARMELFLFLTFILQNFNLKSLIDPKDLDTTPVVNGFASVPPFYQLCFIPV
Sequence of CYP2D6 (P10635 whole entry): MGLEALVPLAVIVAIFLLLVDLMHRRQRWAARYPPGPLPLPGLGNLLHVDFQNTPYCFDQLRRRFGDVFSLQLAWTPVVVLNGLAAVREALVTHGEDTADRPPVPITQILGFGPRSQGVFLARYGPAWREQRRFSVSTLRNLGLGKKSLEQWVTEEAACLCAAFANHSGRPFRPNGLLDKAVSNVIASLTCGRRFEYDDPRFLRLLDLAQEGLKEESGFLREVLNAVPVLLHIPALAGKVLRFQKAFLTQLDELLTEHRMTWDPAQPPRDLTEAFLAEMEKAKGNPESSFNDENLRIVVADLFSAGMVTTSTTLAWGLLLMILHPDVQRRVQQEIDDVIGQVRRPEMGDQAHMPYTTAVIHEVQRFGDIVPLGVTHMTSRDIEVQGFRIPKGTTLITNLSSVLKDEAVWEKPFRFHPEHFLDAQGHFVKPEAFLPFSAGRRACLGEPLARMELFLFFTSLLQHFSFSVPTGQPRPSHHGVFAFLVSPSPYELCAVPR
Sequence of CYP3A4 (P08684 whole entry): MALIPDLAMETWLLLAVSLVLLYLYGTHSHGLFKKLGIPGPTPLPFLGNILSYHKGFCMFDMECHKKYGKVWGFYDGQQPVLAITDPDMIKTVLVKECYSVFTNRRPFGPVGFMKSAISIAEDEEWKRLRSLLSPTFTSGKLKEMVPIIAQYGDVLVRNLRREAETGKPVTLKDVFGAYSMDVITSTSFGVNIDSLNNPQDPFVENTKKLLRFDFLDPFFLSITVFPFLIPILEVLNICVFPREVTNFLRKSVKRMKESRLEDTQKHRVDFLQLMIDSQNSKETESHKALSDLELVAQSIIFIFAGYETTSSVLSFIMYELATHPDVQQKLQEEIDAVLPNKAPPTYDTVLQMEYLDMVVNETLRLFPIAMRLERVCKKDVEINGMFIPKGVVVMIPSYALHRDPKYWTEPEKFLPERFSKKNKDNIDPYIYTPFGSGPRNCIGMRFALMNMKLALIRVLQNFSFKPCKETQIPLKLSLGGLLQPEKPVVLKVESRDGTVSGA

Broadly, the inhibition is the share of the control response that was lost under treatment. `c1ccc(OC(CC2CNC2)c2ccc3ccccc3c2)cc1` (stereo unspecified) gave an inhibition in [1] of 56%.

In turn, `Fc1ccc(C(CC2CNC2)Oc2ccc(Cl)c(Cl)c2)cc1F` (stereo unspecified) came in with an inhibition in [1] of 44%.

Regarding `Fc1ccc(C(CC2CNC2)Oc2ccccc2)cc1F` (stereo unspecified), the inhibition in data set [1] was determined as 48%.

In the case of `Clc1ccc(C(CC2CNC2)Oc2ccccc2Cl)cc1Cl` (stereo unspecified), the inhibition in [1] stood at 40%; in [2] it was 100%; in [3] it was 100%.

Regarding `Fc1ccc(OC(CC2CNC2)c2ccc(Cl)c(Cl)c2)cc1F` (stereo unspecified), the inhibition in data set [1] was determined as 31%; in data set [2], 100%; in data set [3], 100%.

Regarding `Clc1ccc([C@]23CNC[C@H]2C3)cc1Cl` [AMITIFADINE], the remaining at 0.5 h, 1 µM in data set [4] is 67%.

As to `Cc1ccccc1OC(CC1CNC1)c1ccc(F)c(F)c1` (stereo unspecified), the inhibition in [1] is 93%.

By pIC50 is commonly meant the negative decadic logarithm of the IC50, by convention in mol/L. Read a high pIC50 as a low IC50. Turning to `Cc1ccccc1OC(CC1CNC1)c1ccc(Cl)c(F)c1` (stereo unspecified), the pIC50 is 7.42 in [5], 7.16 in data set [6] and 6.79 in [7]. In addition, the remaining at 0.5 h, 1 µM in data set [4] stood at 59%. Further, the inhibition in [1] was 94%; in [2], 100%; in data set [3] it was 100%. In addition, the inhibition at 10 µM at CYP1A2 turned out to be 55%; at CYP2D6, 15%; on CYP2C9, 32%; on CYP3A4, 16%; at CYP2C19, 14%.

Consider `Cc1ccc(OC(CC2CNC2)c2ccc(Cl)c(Cl)c2)cc1` (stereo unspecified), for which the figures for the inhibition in [1], in data set [2] and in [3] were 59%, 100% and 100%, respectively.

`Clc1ccc(OC(CC2CNC2)c2ccc(Cl)c(Cl)c2)cc1` (stereo unspecified): the inhibition came out at 41% in [1], 100% in data set [2] and 100% in [3].

Consider `Fc1ccc(OC(CC2CNC2)c2ccc(Cl)c(Cl)c2)cc1` (stereo unspecified), for which the Ratio IC50 in [8], in [9], in [10] and in [11] was greater than 7 throughout. The pIC50 in data set [5] is 7.14; in [6], 7.47; in data set [7] it was 6.89. Moreover, the inhibition in data set [1] came to 64%; in data set [2] it was 100%; in data set [3] it was 100%.

`Fc1ccc(OC(CC2CNC2)c2ccc(F)c(F)c2)cc1F` (stereo unspecified) gave an inhibition in data set [1] of 63%.

For the molecule `Nc1ccc(S(=O)(=O)Nc2ccnn2-c2ccccc2)cc1` [SULFAPHENAZOLE], the inhibition at 10 µM at CYP2C9 worked out at 11.3%.

In data set [1], `Cc1ccccc1OC(CC1CNC1)c1ccccc1` (stereo unspecified) showed an inhibition of 100%.

The molecule `Fc1ccc(C(CC2CNC2)Oc2cccc(Cl)c2)cc1F` (stereo unspecified) displayed an inhibition in data set [1] of 77%.

In turn, `Fc1ccc(C(CC2CNC2)Oc2ccccc2Cl)cc1F` (stereo unspecified) registered an inhibition in data set [1] of 86%.

In the case of `Cc1ccc(OC(CC2CNC2)c2ccc(F)c(F)c2)cc1` (stereo unspecified), the inhibition in [1] is 83%.

As to `Clc1ccc(OC(CC2CNC2)c2ccc(Cl)c(Cl)c2)cc1Cl` (stereo unspecified), the inhibition in data set [1] was 21%; in data set [2], 88%; in data set [3], 100%.

In the case of `Clc1ccc(COC(Cn2ccnc2)c2ccc(Cl)cc2Cl)c(Cl)c1` (stereo unspecified) [MICONAZOLE], the inhibition at 10 µM at CYP2C19 was 8.6%.

Consider `Fc1ccc(C(CC2CNC2)Oc2ccccc2OC(F)(F)F)cc1F` (stereo unspecified), for which the inhibition in data set [1] worked out at 19%.

Molecule `Fc1ccc(OC(CC2CNC2)c2ccc(F)c(F)c2)cc1` (stereo unspecified) had an inhibition in data set [1] of 55%.

With `Clc1cccc(OC(CC2CNC2)c2ccc(Cl)c(Cl)c2)c1` (stereo unspecified), the inhibition was determined as 35% in data set [1], 100% in data set [2] and 100% in [3].

Take `Clc1ccccc1OC(CC1CNC1)c1ccc2ccccc2c1` (stereo unspecified): the inhibition in data set [1] was 25%.

As to `Fc1cccc(OC(CC2CNC2)c2ccc(Cl)c(Cl)c2)c1` (stereo unspecified), the figures for the inhibition in data set [1], in data set [2] and in [3] were 26%, 100% and 100%, respectively.

`Fc1ccccc1OC(CC1CNC1)c1ccc(Cl)c(Cl)c1` (stereo unspecified): the Ratio IC50 in [8], in data set [9], in data set [10] and in [11] was greater than 7 each time. In addition, the pIC50 is 7.13 in [5], 7.47 in data set [6] and 7.27 in data set [7]. The inhibition in data set [1] amounted to 59%; in [2], 100%; in data set [3] it was 100%.

In turn, `Fc1cccc(OC(CC2CNC2)c2ccc(F)c(F)c2)c1` (stereo unspecified) showed an inhibition in [1] of 94%.

For `Fc1ccccc1OC(CC1CNC1)c1ccccc1` (stereo unspecified), in [1], the inhibition came out at 64%.

Consider `FC(F)(F)Oc1ccc(OC(CC2CNC2)c2ccc(Cl)c(Cl)c2)cc1` (stereo unspecified), for which the inhibition amounted to 16% in data set [1], 98% in data set [2] and 100% in [3].

For the molecule `Fc1ccc(C(CC2CNC2)Oc2ccc(Cl)cc2)cc1F` (stereo unspecified), the inhibition in data set [1] turned out to be 49%.

For the molecule `COCC(=O)O[C@]1(CCN(C)CCCc2nc3ccccc3[nH]2)CCc2cc(F)ccc2[C@@H]1C(C)C` [MIBEFRADIL], in [4], the remaining at 0.5 h, 1 µM was found to be 43%.

In the case of `Fc1ccc(C(CC2CNC2)Oc2cccc(OC(F)(F)F)c2)cc1F` (stereo unspecified), the inhibition in data set [1] was found to be 83%.

`Clc1ccccc1OC(CC1CNC1)c1ccccc1` (stereo unspecified) had an inhibition in data set [1] of 100%.

As to `Fc1cc(C(CC2CNC2)Oc2ccc(Cl)cc2)ccc1Cl` (stereo unspecified), the inhibition was determined as 65% in data set [1], 100% in data set [2] and 100% in data set [3].

As to `Cc1ccccc1OC(CC1CNC1)c1ccc2ccccc2c1` (stereo unspecified), in [1], the inhibition came to 48%.

For `Fc1ccc(C(CC2CNC2)Oc2ccccc2F)cc1F` (stereo unspecified), the inhibition in [1] was determined as 61%.

As for `FC(F)(F)Oc1cccc(OC(CC2CNC2)c2ccc(Cl)c(Cl)c2)c1` (stereo unspecified), the values for the inhibition in [1], in data set [2] and in data set [3] were 9%, 77% and 100%, respectively.

`CNCCC(Oc1ccccc1OC)c1ccccc1` (stereo unspecified): the inhibition in data set [2] is 43%; in data set [3], 85%.

Turning to `FC(F)(F)Oc1ccccc1OC(CC1CNC1)c1ccc(Cl)c(Cl)c1` (stereo unspecified), the inhibition worked out at 16% in data set [1], 93% in data set [2] and 100% in data set [3].

On to `Clc1ccc(C(CC2CNC2)Oc2ccccc2)cc1Cl` (stereo unspecified), for which the Ratio IC50 in [8], in data set [9], in data set [10] and in [11] was greater than 7 in each case. Moreover, the pIC50 in data set [5] was 7.08; in data set [6], 7.43; in data set [7] it was 7.28. For the same molecule, in data set [4], the remaining at 0.5 h, 1 µM came out at 67%. For the same molecule, the inhibition in data set [1] was 50%; in data set [2], 100%; in data set [3], 100%.

`Cc1cccc(OC(CC2CNC2)c2ccc(Cl)c(Cl)c2)c1` (stereo unspecified): in [4], the remaining at 0.5 h, 1 µM was found to be 62%. The figures for the inhibition in data set [1], in [2] and in [3] were 21%, 100% and 100%, respectively.

`Cc1cccc(OC(CC2CNC2)c2ccc(F)c(F)c2)c1` (stereo unspecified) yielded an inhibition in [1] of 100%.

With `Cc1ccccc1OC(CC1CNC1)c1ccc(Cl)c(Cl)c1` (stereo unspecified), in [4], the remaining at 0.5 h, 1 µM is 89%. Also, the figures for the inhibition in data set [1], in data set [2] and in data set [3] were 25%, 100% and 100%, respectively.

`c1ccc(OC(CC2CNC2)c2ccccc2)cc1` (stereo unspecified) returned an inhibition in data set [1] of 66%.

For `Fc1cc(C(CC2CNC2)Oc2cccc(OC(F)(F)F)c2)ccc1Cl` (stereo unspecified), the results for the inhibition in [1], in data set [2] and in data set [3] were 25%, 97% and 100%, respectively.

With `O=c1cc(-c2ccccc2)oc2c1ccc1ccccc12` [ALPHA-NAPHTHOFLAVONE], at CYP1A2, the inhibition at 10 µM turned out to be 5.4%.

In the case of `Fc1ccc(C(CC2CNC2)Oc2ccc(OC(F)(F)F)cc2)cc1F` (stereo unspecified), the inhibition in data set [1] came to 83%.

In the case of `Fc1cc(C(CC2CNC2)Oc2ccccc2OC(F)(F)F)ccc1Cl` (stereo unspecified), the figures for the inhibition in data set [1], in data set [2] and in data set [3] were 48%, 100% and 100%, respectively.

On to `Fc1cc(C(CC2CNC2)Oc2ccccc2)ccc1Cl` (stereo unspecified), for which the pIC50 in data set [5] was 7.29; in data set [6] it was 7.97; in data set [7] it was 7.48. In addition, in data set [4], the remaining at 0.5 h, 1 µM amounted to 41%. In addition, the inhibition was determined as 80% in data set [1], 100% in data set [2] and 100% in data set [3].
